Experimental data taken from US20190322643A1 (Georgia State University Research Foundation, Inc., priority 2016, published 2019).
“Also recorded” adds a separate entry of the source. Like-named read-outs stand apart in the source and are kept apart here.

Experiments:
[1] = tested on: HDAC; assay: Cell based homogenous HDAC assay, A549; settings: read-out: IC50-HDAC A549; A549 cells, mean ± SD of triplicate
Experimental: (§5) After 24 h, 9 μl inhibitors with different concentration were added to the HeLa cells and incubation was continued for 3 h under cell culture conditions. After this treatment period, 10 μl of a 2 mM stock solution of the substrate Boc-K(Ac)-AMC was added into the 96 well plates with Hela cells and inhibitors. […] A549 and K562 cell lines used the same method, respectively. IC50s were calculated using GraphPad Prizm statistical package with sigmoidal variable slope dose response curve fit.
(§6) Boc-K(Ac)-AMC was used as a cell-permeable HDAC substrate, as after deacetylation it is cleaved by trypsin to release the florescent 7-amino-4-methylcoumarin (AMC).

[2] = tested on: HDAC; assay: Cell based homogenous HDAC assay, Hela; settings: read-out: IC50-HDAC Hela; Hela cells, mean ± SD of triplicate
Experimental: as §5, §6

[3] = tested on: HDAC; assay: Cell based homogenous HDAC assay, K562; settings: read-out: IC50-HDAC K562; K562 cells, mean ± SD of triplicate
Experimental: as §5, §6

[4] = molecular target: T1, Mouse histone methyltransferase G9a (969-1263) (Mus musculus, UniProt Q9Z148); assay: MALDI-TOF methylation study of G9a inhibition; assay type: biochemical; settings: inhibitors at 5 μM concentration for 30 min
T1 construct: The 6His-sumo mG9a (969-1263) protein was purified using the following procedure; 6His-sumo (cleaved yes); made in house; host or cells: Escherichia coli BL21 (DE3)
T1 sequence (Q9Z148 969-1263): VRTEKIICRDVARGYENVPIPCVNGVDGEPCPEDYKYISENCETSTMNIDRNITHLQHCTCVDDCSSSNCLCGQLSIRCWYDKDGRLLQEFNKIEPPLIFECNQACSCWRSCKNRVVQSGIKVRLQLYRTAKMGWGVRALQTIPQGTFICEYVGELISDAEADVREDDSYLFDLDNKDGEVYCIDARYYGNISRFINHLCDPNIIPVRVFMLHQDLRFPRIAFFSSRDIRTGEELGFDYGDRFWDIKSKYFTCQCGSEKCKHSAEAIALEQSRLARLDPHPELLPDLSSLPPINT
Experimental: Mouse histone methyltransferase G9a (969-1263) cDNA was amplified from the cDNA of BALB/c mouse thymus, and the fragment was sub-cloned into a vector with a 6His-sumo tag. […] The 6His-sumo mG9a (969-1263) protein was purified using the following procedure: harvested cell pellet was re-suspended in 20 mM Tris (pH 8.0), 500 mM NaCl, 0.1% β-mercaptoethanol, and 1 mM PMSF. Cells were lysed by sonicating for 15 seconds with 6 second intervals for a total time of 15 minutes on an ice bath. […] The 6His-sumo tag was cleaved from the column by adding Ubiquitin-like-specific protease 1 (ULP-1) at 4° C. for 12 hours. Wash buffer was then run through the Ni^+ column again and the elution buffer collected. Subsequently, advanced protein purification was done by HiTrap Q HP sequential Superdex 200 10/300 GL. Elute of every step was analyzed by SDS PAGE, stained by Coomassie brilliant blue (CBB). […] The reaction was incubated at room temperature for 30 min, and stopped by TFA. 1 μL of the sample was mixed with CHCA matrix and m/z peaks were obtained at reflection positive mode. The results of mass spectrum were analyzed using the Bruker flex analysis software and data processing was carried out as described below. MALDI-TOF based experiments were performed according to the protocol developed by Chang et al. (Nat. Struct. Mol. Biol. 2009, 16, 312-317). MALDI spectra were collected using Bruker flex control software and analyzed by flex analysis. After labelling each cluster peaks of H3K9Me0, H3K9Me1 and H3K9Me2 for all of the tested concentrations, area under the cluster (AUC) were extracted by using the same flex analysis software. % abundance of each peak was calculated by following formula: A=% Abundance of (H3K9Me0)=area of H3K9Me0/(area of H3K9Me0+area of H3K9Me1+area of H3K9Me2) B=% Abundance of (H3K9Me1)=area of H3K9Me1/(area of H3K9Me0+area of H3K9Me1+area of H3K9Me2) C=% Abundance of (H3K9Me2)=area of H3K9Me2/(area of H3K9Me0+area of H3K9Me1+area of H3K9Me2). This was repeated for each spectra (3 multiples for each samples). […] Finally % inhibition was found by subtracting % MA(i) from 100. […] A biochemical assay using MALDI-TOF was used to visualize the effects of the synthesized compounds on G9a enzymatic activity. […] Struct. Mol. Biol. 2009, 16, 312-317).

[5] = tested on: MDA-MB-231; assay: Cytotoxicity / anti-proliferation assay (CCK-8), MDA-MB-231; assay type: cell-based; settings: Homo sapiens
Experimental: (§1) A549, MDA-MB-231, HCT-8, MCF-7, and HEK293 cells were seeded at 8000-10000 cells (100 μl) in white 96-well plates and pre-incubate the plate for 24 h under standard cell culture conditions, respectively. Then the cells were exposed to the different inhibitors with various concentrations for 72 h. Finally, 10 μl of CCK-8 kit solution was added to each well and incubated for 3-4 hours under standard cell culture conditions, and the 96 well plates were measured the absorbance at 450 nm using Perkin-Elmer Wallac Victor ^3V 1420 multi label plate reader (Perkin-Elmer, Wellesley, USA). EC50s were calculated using GraphPad Prizm statistical package with sigmoidal variable slope dose response curve fit.
(§2) Cell anti-proliferation assays were performed to determine the toxicity of these inhibitors. Several cell lines (MDA-MB-231, MCF-7, A549 and HCT-8) were incubated and then treated with varying concentrations of the inhibitors for 72 h, respectively. […] These compounds were further evaluated against the control cell line HEK293 to test their toxicity with a non-cancerous cell line.

[6] = tested on: HEK293; assay: Toxicity assay (CCK-8) in control non-cancerous cell line; assay type: cell-based
Experimental: as §1, §2

[7] = molecular target: T2, G9a (Homo sapiens, UniProt Q96KQ7); assay: H3K9Me2 cell immunofluorescence in-cell Western (ICW) assay; assay type: cell-based; settings: MDA-MB-231 cell line, 48 h
T2 construct: endogenous in cells; host or cells: MDA-MB-231
T2 sequence (Q96KQ7 1-1210): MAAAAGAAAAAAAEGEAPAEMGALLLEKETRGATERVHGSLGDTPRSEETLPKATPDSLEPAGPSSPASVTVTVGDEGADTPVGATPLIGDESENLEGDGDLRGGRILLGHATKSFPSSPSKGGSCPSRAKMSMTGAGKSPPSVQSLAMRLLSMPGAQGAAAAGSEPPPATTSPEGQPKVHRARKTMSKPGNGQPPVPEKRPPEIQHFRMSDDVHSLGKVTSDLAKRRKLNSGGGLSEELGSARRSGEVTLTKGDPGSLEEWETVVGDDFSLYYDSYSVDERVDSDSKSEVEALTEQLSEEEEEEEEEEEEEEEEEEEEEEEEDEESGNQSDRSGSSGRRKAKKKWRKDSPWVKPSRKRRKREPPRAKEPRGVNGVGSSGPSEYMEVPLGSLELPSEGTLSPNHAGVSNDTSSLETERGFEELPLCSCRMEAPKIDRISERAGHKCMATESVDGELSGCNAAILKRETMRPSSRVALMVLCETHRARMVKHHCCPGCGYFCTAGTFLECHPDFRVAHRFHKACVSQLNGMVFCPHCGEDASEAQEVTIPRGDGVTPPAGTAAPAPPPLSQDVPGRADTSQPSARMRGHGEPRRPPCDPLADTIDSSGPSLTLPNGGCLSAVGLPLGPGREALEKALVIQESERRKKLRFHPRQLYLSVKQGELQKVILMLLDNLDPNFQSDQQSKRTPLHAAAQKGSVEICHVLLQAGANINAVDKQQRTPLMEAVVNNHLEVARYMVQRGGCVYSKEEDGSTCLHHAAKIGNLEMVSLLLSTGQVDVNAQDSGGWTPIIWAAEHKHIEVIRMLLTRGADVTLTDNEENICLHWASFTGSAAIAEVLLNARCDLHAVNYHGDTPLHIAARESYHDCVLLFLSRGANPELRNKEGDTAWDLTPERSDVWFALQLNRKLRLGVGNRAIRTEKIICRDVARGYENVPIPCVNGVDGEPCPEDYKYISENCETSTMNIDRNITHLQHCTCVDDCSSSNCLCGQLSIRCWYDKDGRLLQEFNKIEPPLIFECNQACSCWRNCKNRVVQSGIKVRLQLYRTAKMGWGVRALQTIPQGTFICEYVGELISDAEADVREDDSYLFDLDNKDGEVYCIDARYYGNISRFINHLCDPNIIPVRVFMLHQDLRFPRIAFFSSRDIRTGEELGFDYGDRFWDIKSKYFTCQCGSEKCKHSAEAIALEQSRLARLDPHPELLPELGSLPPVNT
Experimental: After the incubation, the media was removed and 100 μl fixation and permeabilization solution (2% formaldehyde in PBS) for fixation was added for 30 min. And then use 200 μl 0.1% Triton X100 in PBS washing solution to wash (allow wash to shake on a plate shaker for 5 minutes). After five washes, cells were blocked for 1 h with 150 μl blocking buffer to each well (1% BSA in PBS) (allow blocking at RT with moderate shaking on a plate shaker). After 1 h, remove the blocking buffer from the blocking step and add primary antibody in blocking buffer to cover the bottom of each well. […] The plates were read on an Odyssey CLX (LiCor) scanner at both 800 nm (H3K9me2 signal) and 700 nm (cell tag 700 stain signal) channels. IC50s were calculated using GraphPad Prizm statistical package with sigmoidal variable slope dose response curve fit.

[8] = tested on: HCT-8; assay: Cytotoxicity / anti-proliferation assay (CCK-8), HCT-8; assay type: cell-based; settings: Homo sapiens, 72 h, CCK-8 kit
Experimental: (§3) Then the cells were exposed to the different inhibitors with various concentrations for 72 h. […] EC50s were calculated using GraphPad Prizm statistical package with sigmoidal variable slope dose response curve fit.
(§4) Cell anti-proliferation assays were performed to determine the toxicity of these inhibitors. […] These compounds were further evaluated against the control cell line HEK293 to test their toxicity with a non-cancerous cell line.

[9] = tested on: HDAC; assay: Homogeneous cellular HDAC assay, statements in text without one cell line; settings: result in words
Experimental: as §5, §6

[10] = tested on: A549; assay: Cytotoxicity / anti-proliferation assay (CCK-8), A549; assay type: cell-based; settings: Homo sapiens, 72 h, CCK-8 kit
Experimental: as §3, §4

[11] = alone or as 1:1 mixture, 1-100 μM, read-out: EC50 value

SMILES | IC50 [1] | IC50 [2] | IC50 [3] | inhibition at 5 µM [4] | EC50 [5, 11] | toxicity in normal cell line [6] | IC50 [7] | EC50 [8] | HDAC inhibition activity [9] | EC50 [10] | EC50 ([5]; 72 h, CCK-8 kit, read-out: EC50 MDA-MB-231)
COc1cc2nc(N3CCCN(C)CC3)nc(NC3CCN(Cc4ccccc4)CC3)c2cc1OC.Cl.Cl.Cl [BIX-01294, 2-(hexahydro-4-methyl-1H-1,4-diazepin-1-yl)-6,7-dimethoxy-N-[1-(phenylmethyl)-4-piperidinyl]-4-quinazolinamine trihydrochloride, reference compound] | > 100 µM | > 100 µM | > 100 µM | 77.7 ± 5.73% | 2.16 ± 0.88 µM | toxic |  |  |  |  | 
COc1ccc2c(NC3CCN(Cc4ccccc4)CC3)nc(NCCNC(=O)CCCCCC(=O)NO)nc2c1 [Compound 14, N1-(2-((4-((1-benzylpiperidin-4-yl)amino)-7-methoxyquinazolin-2-yl)amino)ethyl)-N7-hydroxyheptanediamide] |  |  |  | 69.5 ± 3.43% |  | lower toxicity; also recorded: less toxic compared to 13 | 7.14 ± 1.62 µM | 73.1 ± 1.21 µM | significant HDAC inhibition |  | 
COc1ccc2c(NC3CCN(Cc4ccccc4)CC3)nc(NCCNC(=O)CCCCCCC(=O)NO)nc2c1 [Compound 13, N1-(2-((4-((1-benzylpiperidin-4-yl)amino)-7-methoxyquinazolin-2-yl)amino)ethyl)-N8-hydroxyoctanediamide] |  |  |  | 62 ± 14.4% |  | lower toxicity | 37.8 ± 2.8 µM | > 100 µM | significant HDAC inhibition |  | 
COc1cc2nc(NCCNC(=O)CCCCCC(=O)NO)nc(NC3CCN(Cc4ccccc4)CC3)c2cc1OC [Compound 5b, N1-(2-((4-((1-benzylpiperidin-4-yl)amino)-6,7-dimethoxyquinazolin-2-yl)amino)ethyl)-N7-hydroxyheptanediamide] |  |  |  | 38 ± 4.99% |  |  | 87.4 ± 5.44 µM | > 100 µM | much lower than that of 14 | > 100 µM | 
O=C(CCCCCCC(=O)Nc1ccccc1)NO [SAHA, N-hydroxy-N′-phenyl-octanediamide] |  |  |  |  | 2.87 ± 0.84 µM | toxic |  |  |  |  | 2.87 ± 0.84 µM
